The source made the active and inactive calls. The calls are words filed in the database; no cut-off is given here.
Legend:
[1] = tested on: Vaccinia virus WR; test: Antiviral activity against Vaccinia virus WR ATCC VR-1354 infected through dermal scarification route in BALB/c mouse assessed as reduction of viral load in brain at 100 mg/kg, po qd measured after 14 days postinfection by RT-PCR analysis relative to control; assay type: functional, organism-based; set-up: dose 100 mg/kg
[2] = tested on: Vaccinia virus WR; test: Antiviral activity against Vaccinia virus WR ATCC VR-1354 infected through intravenous route in BALB/c mouse assessed as reduction of viral load in lung at 100 mg/kg, po qd measured after 14 days postinfection by RT-PCR analysis relative to control; assay type: functional, organism-based; set-up: dose 100 mg/kg
[3] = tested on: Vaccinia virus WR; test: Antiviral activity against Vaccinia virus WR ATCC VR-1354 infected through intravenous route in BALB/c mouse assessed as reduction of viral load in liver at 100 mg/kg, po qd measured after 3 days postinfection by RT-PCR analysis relative to control; assay type: functional
[4] = tested on: Vaccinia virus WR; test: Antiviral activity against Vaccinia virus WR ATCC VR-1354 infected through intravenous route in BALB/c mouse assessed as reduction of viral load in brain at 100 mg/kg, po qd measured after 3 days postinfection by RT-PCR analysis relative to control; assay type: functional
[5] = tested on: Vaccinia virus WR; test: Antiviral activity against Vaccinia virus WR ATCC VR-1354 infected through intravenous route in BALB/c mouse assessed as reduction of viral load in brain at 100 mg/kg, po qd measured after 14 days postinfection by RT-PCR analysis relative to control; assay type: functional, organism-based; set-up: dose 100 mg/kg
[6] = tested on: Vaccinia virus WR; test: Antiviral activity against Vaccinia virus WR ATCC VR-1354 infected through intraperitoneal route in BALB/c mouse assessed as reduction of viral load in blood at 100 mg/kg, po qd measured after 5 days postinfection by RT-PCR analysis relative to control; assay type: functional, organism-based; set-up: dose 100 mg/kg
[7] = tested on: Vaccinia virus WR; test: Antiviral activity against Vaccinia virus WR ATCC VR-1354 in african green monkey BSC-40 cells infected with 7 day postinfection BAL fluid from 100 mg/kg, po qd compound treated BALB/c mouse infected through percutaneous route assessed as reduction of viral attachment to cells by plaque titration assay; assay type: functional
[8] = tested on: Vaccinia virus WR; test: Antiviral activity against Vaccinia virus WR ATCC VR-1354 infected through dermal scarification route in ACAM2000 vaccinated BALB/c mouse assessed as reduction of swab virus titers at 100 mg/kg, po qd measured after 5 days postinfection by RT-PCR analysis relative to control; assay type: functional
[9] = tested on: Vaccinia virus WR; test: Antiviral activity against Vaccinia virus WR ATCC VR-1354 infected through dermal scarification route in ACAM2000 vaccinated BALB/c mouse assessed as reduction of swab virus titers at 100 mg/kg, po qd measured after 7 days postinfection by RT-PCR analysis relative to control; assay type: functional
[10] = tested on: Vaccinia virus WR; test: Antiviral activity against Vaccinia virus WR ATCC VR-1354 infected through percutaneous route in BALB/c mouse assessed as protection against hypothermia at 100 mg/kg, po qd for 1 to 3 days measured on day 2; assay type: functional, organism-based; set-up: dose 100 mg/kg
[11] = tested on: Vaccinia virus WR; test: Antiviral activity against Vaccinia virus WR ATCC VR-1354 infected through percutaneous route in BALB/c mouse assessed as protection against hypothermia at 100 mg/kg, po qd for 5 to 14 days; assay type: functional, organism-based; set-up: dose 100 mg/kg
[12] = tested on: Vaccinia virus WR; test: Antiviral activity against Vaccinia virus WR ATCC VR-1354 infected through dermal scarification route in BALB/c mouse assessed as protection against virus-induced systemic disease symptoms at 100 mg/kg, po qd measured after 9 days postinfection; assay type: functional, organism-based; set-up: dose 100 mg/kg
[13] = tested on: Vaccinia virus WR; test: Antiviral activity against Vaccinia virus WR ATCC VR-1354 infected through percutaneous route in BALB/c mouse assessed as inhibition of virus dissemination in brain at 100 mg/kg, po qd for 1 day by RT-PCR analysis; assay type: functional, organism-based; set-up: dose 100 mg/kg
[14] = tested on: Vaccinia virus WR; test: Antiviral activity against Vaccinia virus WR ATCC VR-1354 infected through percutaneous route in BALB/c mouse assessed as inhibition of virus dissemination in blood at 100 mg/kg, po qd for 3 to 14 days by RT-PCR analysis; assay type: functional, organism-based; set-up: dose 100 mg/kg
[15] = tested on: Vaccinia virus WR; test: Antiviral activity against Vaccinia virus WR ATCC VR-1354 infected through dermal scarification route in BALB/c mouse assessed as protection against virus-induced conjunctivitis in mouse eyes at 100 mg/kg, po qd measured after 6 days postinfection; assay type: functional, organism-based; set-up: dose 100 mg/kg
[16] = tested on: Vaccinia virus WR; test: Antiviral activity against Vaccinia virus WR ATCC VR-1354 infected through intravenous route in BALB/c mouse assessed as protection against virus-induced satellite lesion formation on tails at 100 mg/kg, po qd measured after 6 days postinfection; assay type: functional, organism-based; set-up: dose 100 mg/kg
[17] = tested on: Vaccinia virus WR; test: Antiviral activity against Vaccinia virus WR ATCC VR-1354 infected through intravenous route in BALB/c mouse assessed as protection against virus-induced conjunctivitis in mouse eyes at 100 mg/kg, po qd measured after 6 days postinfection; assay type: functional, organism-based; set-up: dose 100 mg/kg
[18] = tested on: Vaccinia virus WR; test: Antiviral activity against Vaccinia virus WR ATCC VR-1354 infected through percutaneous route in BALB/c mouse assessed as reduction of viral load in blood at 100 mg/kg, po qd measured after 3 days postinfection by RT-PCR analysis relative to control; assay type: functional
[19] = tested on: Vaccinia virus WR; test: Antiviral activity against Vaccinia virus WR ATCC VR-1354 infected through percutaneous route in BALB/c mouse assessed as reduction of viral load in spleen at 100 mg/kg, po qd measured after 3 days postinfection by RT-PCR analysis relative to control; assay type: functional
[20] = tested on: Vaccinia virus WR; test: Antiviral activity against Vaccinia virus WR ATCC VR-1354 infected through percutaneous route in BALB/c mouse assessed as reduction of viral load in brain at 100 mg/kg, po qd measured after 3 days postinfection by RT-PCR analysis relative to control; assay type: functional
[21] = tested on: Vaccinia virus WR; test: Antiviral activity against Vaccinia virus WR ATCC VR-1354 infected through percutaneous route in BALB/c mouse assessed as reduction of viral load in blood at 100 mg/kg, po qd measured after 7 days postinfection by RT-PCR analysis relative to control; assay type: functional, organism-based; set-up: dose 100 mg/kg
[22] = tested on: Vaccinia virus WR; test: Antiviral activity against Vaccinia virus WR ATCC VR-1354 infected through percutaneous route in BALB/c mouse assessed as reduction of viral load in brain at 100 mg/kg, po qd measured after 7 days postinfection by RT-PCR analysis relative to control; assay type: functional, organism-based; set-up: dose 100 mg/kg
[23] = tested on: Vaccinia virus WR; test: Antiviral activity against Vaccinia virus WR ATCC VR-1354 infected through percutaneous route in BALB/c mouse assessed as reduction of viral load in brain at 100 mg/kg, po qd measured after 13 days postinfection by RT-PCR analysis relative to control; assay type: functional, organism-based; set-up: dose 100 mg/kg
[24] = tested on: Vaccinia virus WR; test: Antiviral activity against Vaccinia virus WR ATCC VR-1354 infected through dermal scarification route in BALB/c mouse assessed as reduction of viral load in brain at 100 mg/kg, po qd measured after 5 days postinfection by RT-PCR analysis relative to control; assay type: functional
[25] = tested on: Vaccinia virus WR; test: Antiviral activity against Vaccinia virus WR ATCC VR-1354 infected through dermal scarification route in BALB/c mouse assessed as reduction of viral load in blood at 100 mg/kg, po qd measured after 14 days postinfection by RT-PCR analysis relative to control; assay type: functional, organism-based; set-up: dose 100 mg/kg
[26] = tested on: Vaccinia virus WR; test: Antiviral activity against Vaccinia virus WR ATCC VR-1354 infected through dermal scarification route in BALB/c mouse assessed as reduction of viral load in lung at 100 mg/kg, po qd measured after 14 days postinfection by RT-PCR analysis relative to control; assay type: functional, organism-based; set-up: dose 100 mg/kg

O=C(NN1C(=O)[C@@H]2[C@@H]3C=C[C@@H]([C@H]4C[C@@H]34)[C@@H]2C1=O)c1ccc(C(F)(F)F)cc1 [TECOVIRIMAT]
Activity [1]: Active
Activity [2]: Active
fold change (FC) [3]: 8
fold change (FC) [4]: 23
Activity [5]: Active
Activity [6]: Active
fold change (FC) [7]: 528
fold change (FC) [8]: 71
fold change (FC) [9]: 53
Activity [10]: inactive
Activity [11]: Active
Activity [12]: Active
Activity [13]: inactive
Activity [14]: Active
Activity [15]: Active
Activity [16]: Active
Activity [17]: Active
fold change (FC) [18]: 8
fold change (FC) [19]: 300
fold change (FC) [20]: 1.78
Activity [21]: Active
Activity [22]: Active
Activity [23]: Active
fold change (FC) [24]: 3
Activity [25]: Active
Activity [26]: Active
